Values after ≈ are worked out from the molar mass of the structure shown.
Tests used:
Assay type in all cases: cell-based
[1] = tested on: Bifidobacterium longum subsp. infantis; assay: Minimum Inhibitory Concentration (MIC) assay; conditions: anaerobic, 37° C., 18 h
Description: (§1) The bioactivity of macrolide compounds against 4 strains of common gut bacteria (Escherichia coli, Streptococcus salivarius subsp. salivarius, Lactobacillus casei and Bifidobacterium longum subsp. infantis) and common mammalian skin isolate Micrococcus luteus, was assessed using the Minimum Inhibitory Concentration (MIC) assay. Bacterial strains were purchased from DSMZ (Brunswick, Germany) except M. luteus which was obtained from NCIMB, and stored in 20% glycerol at −80° C. Stock solutions (100% DMSO) of positive controls (azithromycin and erythromycin), and of test compounds 1 and 2 were diluted in broth to working stock concentrations of 256 μg/ml (final assay testing concentration range 128 μg/ml to 0.00391 μg/ml). Stock solutions of all other compounds were diluted in broth to working stock concentrations of 128 μg/ml (final assay testing concentration range 64 μg/ml to 0.00195 μg/ml). Bacterial strains were cultivated in appropriate broth in an anaerobic chamber at 37° C., except for M. luteus which was incubated aerobically at 37° C. 18 h cultures were diluted in broth to an OD595 of 0.1 and then further diluted 1:10. In 96-well plates, in duplicate, 200 μl working stock of test compound was transferred to well 1 and serially diluted (1:2) in broth. 100 μl bacterial suspension was aliquoted into each well and mixed thoroughly. Appropriate sterility controls were included and plates were incubated in an anaerobic chamber, or aerobically (M. luteus) at 37° C. for 18 h. The MIC was determined to be the concentration of test compound in the first well with no visible growth.

Escherichia coli = assay: Minimum Inhibitory Concentration (MIC) assay; conditions: anaerobic, 37° C., 18 h
Description: as §1

Lactobacillus casei = assay: Minimum Inhibitory Concentration (MIC) assay; conditions: Lacticaseibacillus casei; anaerobic, 37° C., 18 h
Description: as §1

Micrococcus luteus = assay: Minimum Inhibitory Concentration (MIC) assay; conditions: aerobic, 37° C., 18 h
Description: as §1

[2] = tested on: Streptococcus salivarius subsp. salivarius; assay: Minimum Inhibitory Concentration (MIC) assay; conditions: anaerobic, 37° C., 18 h
Description: as §1

[3] = tested on: E. coli, S. salivarius, L. casei, B. longum or M. luteus; assay: Direct antibacterial activity, summary over all strains tested; conditions: against the bacterial strains tested (Table 1)
Description: as §1

human TLR2 = target: T1, human TLR2 (Homo sapiens, UniProt O60603); assay: TLR2 reporter assay (HEK-293-TLR, SEAP); conditions: for OD after addition of 5 μM test article / OD after addition of 10 μM test article / OD after addition of 20 μM test article: SEAP reporter optical density; for TLR2 stimulation: at concentrations up to 20 uM
T1 construct: host or cells: recombinant HEK-293-TLR cell lines (hTLR2, NFkB-SEAP reporter)
Description: Samples and controls were tested in duplicate on recombinant HEK-293-TLR cell lines using a cell reporter assay at Invivogen using their standard assay conditions. These cell lines functionally over-express human TLR2 protein as well as a reporter gene which is a secreted alkaline phosphatase (SEAP). The production of this reporter gene is driven by an NFkB inducible promoter. The TLR reporter cell lines activation results are given as optical density values (OD). 20 μl of each test article were used to stimulate the hTLR2 reporter cell lines in a 200 μl of final reaction volume. Samples were tested in duplicate, with at least two concentrations tested—20 uM and 10 uM.
Compounds were tested using a TLR2 reporter assay (see general methods) that measured for stimulation of the TLR2 receptor. Stimulatory effect was measured as an increase in optical density (OD) due to release of secreted alkaline phosphatase (SEAP) and is shown in table 4: […]

T1 sequence (O60603 21-784): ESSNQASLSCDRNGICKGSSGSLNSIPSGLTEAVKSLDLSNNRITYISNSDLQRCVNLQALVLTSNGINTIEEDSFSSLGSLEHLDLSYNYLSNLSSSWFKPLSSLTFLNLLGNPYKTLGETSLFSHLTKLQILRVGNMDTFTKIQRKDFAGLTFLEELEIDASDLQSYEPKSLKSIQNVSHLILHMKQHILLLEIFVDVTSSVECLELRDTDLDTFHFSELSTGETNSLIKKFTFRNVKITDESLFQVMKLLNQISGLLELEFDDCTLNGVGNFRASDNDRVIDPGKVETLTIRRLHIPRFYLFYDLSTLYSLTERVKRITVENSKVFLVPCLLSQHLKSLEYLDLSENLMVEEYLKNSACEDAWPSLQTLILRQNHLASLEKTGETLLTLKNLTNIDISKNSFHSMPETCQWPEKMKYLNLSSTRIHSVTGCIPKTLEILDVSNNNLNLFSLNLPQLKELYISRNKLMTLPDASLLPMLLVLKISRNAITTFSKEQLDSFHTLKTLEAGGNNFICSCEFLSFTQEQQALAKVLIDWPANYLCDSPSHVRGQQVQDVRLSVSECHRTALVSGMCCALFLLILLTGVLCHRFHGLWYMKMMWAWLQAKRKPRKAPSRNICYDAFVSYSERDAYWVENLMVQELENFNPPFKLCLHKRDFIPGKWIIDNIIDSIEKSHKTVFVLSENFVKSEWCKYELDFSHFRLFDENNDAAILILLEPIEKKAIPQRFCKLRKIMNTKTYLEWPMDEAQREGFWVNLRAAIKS

Row | SMILES | MIC [1] | MIC (Escherichia coli) | MIC (Lactobacillus casei) | MIC (Micrococcus luteus) | MIC [2] | OD after addition of 5 μM test article (human TLR2) | OD after addition of 10 μM test article (human TLR2) | OD after addition of 20 μM test article (human TLR2) | TLR2 stimulation (human TLR2) | concentrations at which TLR2 was stimulated (down to) (human TLR2; lowest stimulating concentration tested) | antibacterial activity [3]
1 | CC[C@H]1OC(=O)[C@H](C)[C@@H](O[C@H]2C[C@@](C)(OC)[C@@H](O)[C@H](C)O2)[C@H](C)[C@@H](O[C@@H]2O[C@H](C)C[C@H](N(C)C)[C@H]2O)[C@](C)(O)C[C@@H](C)CN(C)[C@H](C)[C@@H](O)[C@]1(C)O [Azithromycin, reference compound] | > 64 mg/L | < 8 mg/L | < 1 mg/L | 0.125 mg/L (≈ 0.167 µM) | < 0.5 mg/L | 0.029 | 0.045 | 0.031 | little or no stimulation |  | potent activity against a number of the strains
2 | CC[C@H]1OC(=O)[C@H](C)[C@@H](O[C@H]2CC(N(C)C)[C@H](O)C(C)O2)[C@H](C)[C@@H](O)[C@](C)(O)C[C@@H](C)CN(C)[C@H](C)[C@@H](O)[C@H]1C (some centres unmarked) [Compound 4] | > 64 mg/L | > 64 mg/L | > 64 mg/L |  | > 64 mg/L |  |  |  |  |  | no antibacterial activity
3 | CC[C@H]1OC(=O)[C@H](C)[C@@H](O[C@H]2CC(N(C)C)[C@H](O)C(C)O2)[C@H](C)[C@@H](O)[C@](C)(O)C[C@@H](C)C(O)[C@H](C)[C@@H](O)[C@H]1C (some centres unmarked) [Compound 7] | > 64 mg/L | > 64 mg/L | > 64 mg/L |  | > 64 mg/L |  |  |  |  |  | no antibacterial activity
4 | CC[C@H]1OC(=O)[C@H](C)[C@@H](O[C@H]2CC(N(C)C)[C@H](O)C(C)O2)[C@H](C)[C@@H](O)[C@](C)(O)C[C@@H](C)N(C)C[C@H](C)[C@@H](O)[C@]1(C)O (some centres unmarked) [Compound 17] |  |  |  |  |  | 0.054 | 0.155 | 0.234 |  | ≥ 10 µM | 
5 | CC[C@H]1OC(=O)[C@H](C)[C@@H](O[C@H]2C[C@@](C)(OC)[C@@H](O)[C@H](C)O2)[C@H](C)[C@@H](O[C@@H]2O[C@H](C)C[C@H](N(C)C)[C@H]2O)[C@](C)(O)C[C@@H](C)C(=O)[C@H](C)[C@@H](O)[C@]1(C)O [Erythromycin, reference compound] | > 64 mg/L | > 64 mg/L | < 0.25 mg/L | < 0.0625 mg/L | < 0.06 mg/L | 0.035 | 0.065 | 0.045 | little or no stimulation |  | potent activity against a number of the strains

Continued, in another order:

Row | MIC [1] | MIC (Escherichia coli) | MIC (Lactobacillus casei) | MIC (Micrococcus luteus) | MIC [2] | OD after addition of 5 μM test article (human TLR2) | OD after addition of 10 μM test article (human TLR2) | OD after addition of 20 μM test article (human TLR2) | TLR2 stimulation (human TLR2) | concentrations at which TLR2 was stimulated (down to) (human TLR2; lowest stimulating concentration tested) | SMILES | antibacterial activity [3]
6 |  |  |  |  |  | −0.043 | −0.015 | −0.026 | little or no stimulation |  | CC[C@H]1OC(=O)[C@H](C)[C@@H](O[C@H]2CC(N(C)C)[C@H](O)C(C)O2)[C@H](C)[C@@H](O)[C@](C)(O)C[C@@H](C)C(=O)[C@H](C)[C@@H](O)[C@H]1C (some centres unmarked) [Compound 3] | no antibacterial activity
7 | > 64 mg/L | > 64 mg/L | > 64 mg/L |  | > 64 mg/L |  |  |  |  |  | CC1O[C@@H](O[C@H]2[C@H](C)[C@@H](O)[C@](C)(O)C[C@@H](C)C(=O)[C@H](C)[C@@H](O)[C@@H](C)[C@@H](C3CCC3)OC(=O)[C@@H]2C)CC(N(C)C)[C@@H]1O (some centres unmarked) [Compound 5] | no antibacterial activity
8 | > 64 mg/L | > 64 mg/L | > 64 mg/L |  | > 64 mg/L |  |  |  |  |  | CC[C@H]1OC(=O)[C@H](C)[C@@H](O[C@H]2CC(NC)[C@H](O)C(C)O2)[C@H](C)[C@@H](O)[C@](C)(O)C[C@@H](C)C(=O)[C@H](C)[C@@H](O)[C@H]1C (some centres unmarked) [Compound 6] | no antibacterial activity
9 | > 64 mg/L | > 64 mg/L | > 64 mg/L |  | > 64 mg/L |  |  |  |  |  | CC1O[C@@H](O[C@H]2[C@H](C)[C@@H](O)[C@](C)(O)C[C@@H](C)C(=O)[C@H](C)[C@@H](O)[C@@H](C)[C@@H](C)OC(=O)[C@@H]2C)CC(N(C)C)[C@@H]1O (some centres unmarked) [Compound 8] | no antibacterial activity
10 | > 64 mg/L | > 64 mg/L | > 64 mg/L |  | > 64 mg/L |  |  |  |  |  | CC(O)[C@H]1OC(=O)[C@H](C)[C@@H](O[C@H]2C[C@@H](N(C)C)[C@H](O)[C@@H](C)O2)[C@H](C)[C@@H](O)[C@](C)(O)C[C@@H](C)C(=O)[C@H](C)[C@@H](O)[C@H]1C (some centres unmarked) [Compound 9, 14-hydroxy angolosamine erythronolide B] | no antibacterial activity
